Assay results as given in patent US12545668B2, “Cyclic amine derivative as agent for promoting advillin function, and novel cyclic amine derivative and pharmaceutical use thereof” (Toray Industries, Inc., priority 2018, dated 2026).

What was measured:
[1] = Specific binding of 3H-labeled compound to membrane fraction prepared from rat brainstem; settings: 3H-labeled compound of Example 7, 37° C., 1 hour; relative to dorsal root ganglion
Procedure: (§1) A binding property of a ^3H-labeled cyclic amine derivative (I) to each of membrane fractions prepared from various tissues of a rat was evaluated, and thus, a tissue containing a molecular target of the cyclic amine derivative (I) was clarified.
(§2) As the cyclic amine derivative (I), the compound of Example 7 was used.
(§3) Male SD rats (manufactured by Charles River Laboratories Japan, Inc.) of 7 weeks old were used. Rats were anesthetized with isoflurane, and euthanized by exsanguination from the abdominal aorta using a syringe having an inner wall treated with a heparin sodium injection (manufactured by AY Pharmaceuticals Co., Ltd.). […]
(§4) A homogenate sample of each tissue thus collected was prepared, using a homogenizer, by adding a homogenize buffer (sucrose (1 M), Tris-HCl (0.5 M), and 1× protease inhibitor cocktail (manufactured by Sigma Aldrich), pH 7.6) to the collected tissue. […] The resultant supernatant was ultracentrifuged at 100,000×g at 4° C. for 60 minutes, and the thus obtained precipitate was suspended in Krebs-Ringer bicarbonate buffer (manufactured by Sigma Aldrich) to quantitatively determine the amount of protein using a BCA protein assay kit (manufactured by Thermo Fisher Scientific K.K.). […]

[2] = Specific binding of 3H-labeled compound to membrane fractions prepared from the other rat tissues; settings: 3H-labeled compound of Example 7, 37° C., 1 hour; relative to dorsal root ganglion
Procedure: as §1, §2, §3, §4

[3] = Specific binding of 3H-labeled compound to membrane fraction prepared from rat dorsal root ganglion; settings: 3H-labeled compound of Example 7, 37° C., 1 hour; unlabeled compound for non-specific binding; FIG. 2
Procedure: as §1, §2, §3, §4

CN(C)C1CCN(C(=O)C[C@H](O)c2nccn2C)CC1 [Example 7, (S)-1-(4-(dimethylamino)piperidin-1-yl)-3-hydroxy-3-(1-methyl-1H-imidazol-2-yl)propan-1-one]
specific binding to the membrane fraction prepared from the brainstem, as % of the specific binding to the dorsal root ganglion membrane fraction [1]: 4.2% | specific bindings to the membrane fractions prepared from the other tissues including the brain, as % of the specific binding to the dorsal root ganglion membrane fraction [2]: less than 1% | specific binding to the membrane fraction prepared from the dorsal root ganglion [3]: significant
